According to patent US5223415A, “Biosynthetic production of 7-[1',2',6',7',8',8a'(R)-hexahydro-2'(S),6'(R)-dimethyl-8'(S)-hydroxy-1' (S)-naphthyl]-3(R),5(R)-dihydroxyheptanoic acid (triol acid)” (Merck & Co., Inc., priority 1992, dated 1993):
Structures can show the parent of a compound that is named as a salt.

Key:
[1] = system: purified Clonostachys compactiuscula esterase; format: biochemical; conditions: within 16 h; enzyme 4.0 or 40.0 microgram/ml, simvastatin 10 or 35 mM, pH 7.8 or 9.5, methanol 0-20% v/v (conditions listed in table 1)
Procedure: Clonostachys compactiuscula esterase was purified from 57 g mycelial cells which had been grown up in medium EN using the methods detailed in Examples 1 and 3. The use of a Pharmacia HR 10/10 MONO Q® column allowed the application of 85 mL of crude cell-free extract per purification run. In total 0.89 mg of purified esterase was obtained (in a volume of 10 mL) which was then concentrated to 0.175 mg protein/mL by ultrafiltration using a 10,000 molecular weight cut-off CENTRIPREP® device (AMICON®).
Other conditions which were varied were pH (7.8 and 9.5 were assessed) and methanol concentration (0, 10 and 20% [v/v, final concentration]). The reactions were buffered by the inclusion of either 100 mM TRIS (in the case of reactions carried out at pH 7.8) or 100 mM glycine […]. Greater than 90% hydrolysis of residual lovastatin acid to triol acid was obtained within 16 h under the following conditions: […]

[2] = system: crude homogenate of Clonostachys compactiuscula; format: biochemical; conditions: equal volumes of crude homogenate (about 0.5 mg/ml protein) and lovastatin acid ammonium salt 5 g/L, 29° C., within 2 hrs
Procedure: Clonostachys compactiuscula ATCC 38009 was grown in 250 ml shake flasks containing 12 ml of medium EN at 29° C. for 3 days. Lovastatin ammonium salt was added to give a concentration of 2.5 g/L and fermentation was continued for 2 additional days. To prepare the crude homogenate, the culture was harvested by centrifugation at 3000 rpm for 10 minutes, after which it was washed with 50 mM of N-tris(hydroxymethyl)methyl-2-aminoethanesulfonic acid (TES) buffer, pH 7.7. The culture medium was again centrifuged and the cell mass was chilled on ice and then subjected to grinding in a mortar and pestle containing glass fragments and powdered dry ice. The contents of 1 shake flask was resuspended in 2.0 ml of 50 mM TES buffer and centrifuged at 6000 rpm for 10 minutes to remove cell debris and glass fragments. The supernatant was used as the source of crude homogenate with protein concentration of approximately 0.5 mg/ml.
In order to carry out the biotransformation, one volume of crude homogenate was combined with an equal volume of lovastatin acid ammonium salt (5 g/L), and the mixture was incubated at 29° C. Using this method, 80-90% conversion of lovastatin acid to triol acid was observed within 2 hrs.

[3] = system: purified lovastatin acid hydrolase from Clonostachys compactiuscula; experiment: Km and specific activity of purified hydrolase with lovastatin ammonium salt as substrate; format: biochemical; conditions: for specific activity: saturating substrate conditions
Procedure: A hydrolytic enzyme which carries out the biotransformation of lovastatin acid to triol acid was purified by Fast Protein Liquid Chromatography (FPLC*) employing a MONO Q® anion exchange column to near homogeneity from homogenates of Clonostachys compactiuscula employing the procedures described below.
The supernatant from the 6,000 rpm centrifugation as in Example 2 above, but where 50 mM of tris(hydroxymethyl)aminomethane (TRIS) buffer (pH 7.8) is substituted for 50 mM TES buffer, was centrifuged at 15,000 rpm for 20 minutes and the resulting supernatant filtered through a […] filter. Batches (10 mL) of filtrate containing 0.3-0.5 mg/mL protein were then applied at a rate of 1.0-2.0 mL/minute to a Pharmacia MONO Q® (HR 5/5) anion exchange column connected to a Pharmacia Fast Protein Liquid Chromatography (FPLC) system.
(§1) After allowing binding of the anionic proteins to the column matrix, the hydrolase was specifically eluted by the application of a linear gradient of sodium chloride (0-500 mM) in 20 mM TRIS, pH 7.8. […] When the latter substrate was used, the hydrolytic reaction was monitored spectrophotometrically at 410 nm essentially as described by Lawrence, R. C. et al. in J. Gen. Microbiol. (1967) 48, 401-418.
Using the purified enzyme preparation, the biotransformation was carried out in accordance with the procedures described above in Examples 1, 2, 4 and 6, and an estimate was made of the hydrolase's Km and specific activity with lovastatin ammonium salt as substrate. […]
as §1, with “mM).” for “mM) in 20 mM TRIS, pH 7.8.”, “Microbiol. (1967) 48, 401-418.” left out

[4] = system: crude hydrolase (6000 rpm supernatant) of Clonostachys compactiuscula ATCC 38009; conditions: lovastatin 1.4 mM and simvastatin 18.6 mM ammonium salts solution, 50 mM Tris pH 7.8, methanol, 29 C., after 17 h
Procedure: The resulting homogenized, frozen powder was transferred to a suitable tube and the material remaining in the mortar washed into the same tube using a minimal volume of 50 mM Tris, pH 7.8. The mixture was then allowed to thaw and then centrifuged at 6000 rpm for 10 minutes to remove large cell debris and glass.
The 6000 rpm supernatant was used as a crude source of hydrolase and 0.8 mL was mixed with 0.2 mL methanol and 1.0 mL of a solution of simvastatin (18.6 mM and lovastatin (1.4 mM) ammonium salts in 50 MM Tris, pH 7.8.) The reaction mixture was incubated at 29 C. and sampled after 1 h, 2 h, and 17 h by removing 0.1 mL and diluting with 0.9 mL methanol. The samples were then subjected to analysis by HPLC using a Whatman C-8 column as stationary phase and a 60:40 mixture of acetonitrile: 0.5% phosphoric acid as mobile phase; under these conditions the respective retention times for simvastatin, lovastatin and triol ammonium salts are 4.4 min., 3.8 min., and 2.5 min.

hydrolysis of residual lovastatin acid to triol acid [1]	conversion of lovastatin acid to triol acid [2]	Km ([3]; lovastatin ammonium salt as substrate, purified enzyme preparation)	conversion of lovastatin (HPLC area percent reduction) [4]	Compound	specific activity ([3]; Example 3)	specific activity ([3]; Example 4)
Greater than 90%	80-90%			CC[C@H](C)C(=O)O[C@H]1C[C@@H](C)C=C2C=C[C@H](C)[C@H](CC[C@@H](O)C[C@@H](O)CC(=O)O)[C@H]21 [lovastatin acid]		
		4.14 mM	greater than 99%	CC[C@H](C)C(=O)O[C@H]1C[C@@H](C)C=C2C=C[C@H](C)[C@H](CC[C@@H](O)C[C@@H](O)CC(=O)O)[C@H]21 [lovastatin ammonium salt]	0.04 mmol lovastatin ammonium salt hydrolyzed/mg protein per minute	0.11 mmol lovastatin ammonium salt/mg protein per hour
